Here are results for seven molecules from ChEMBL document CHEMBL3430912, “GSK Tres Cantos Anti-Kinetoplastid Screening (TCAKS) Data”.

Data set [1] has as its system Trypanosoma cruzi. Kind of data set: GSK_TCAKS: pIC50 Trypanosoma cruzi viability assay using beta-GAL activity. This assay was run at single shot at 5uM compound concentration per well. The biological reagents consisted of NIH-3T3 host cells and trypomastigotes parasitic cells; both cell types were set to a 3.3 * 10^5 cells/mL dilution in assay DMEM by means of a CASY cell counter device using a 60um capillary. 6 uL of the mixture were dispensed per well (about 1 * 10^3 host-cells and 1 * 10^3 parasites) with a Multidrop Combi dispenser. […] In all wells, the percentage of DMSO never exceeded 0.5%. Plates incubated for four days at 37C, 5% CO2. The substrate used for the assay fluorescence intensity (FLINT) readout was resorufin-beta-D-galactopiranoside (Sigma-Aldrich) at 5uM per well. It was diluted in PBS supplemented with the soft detergent Igepal (Fluka). The format is functional, organism-based, Mus musculus. As to conditions: Tulahuen, NIH3T3.

Data set [2] has as its system Trypanosoma cruzi. The data set can be described thus: (§1) GSK_TCAKS: pIC50 Trypanosoma cruzi Imaging: Infected Cells. […] Cells were then washed once with PBS before infection. T. cruzi trypomastigotes, collected at days 5 to 8 after infection from LLC-MK2 parasite infected cultures, were allowed to swim out for 4h at 37C from a centrifuged pellet (2,500 rpm/10 min/room temperature). Trypomastigotes were then collected and counted in a CASY Cell Counter. Trypomastigotes, in supplemented DMEM, were added to H9c2 cultures in a multiplicity of infection of 1 and incubated for 18 h. Cells were washed once with PBS before incubation of the infected H9c2 monolayer with trypsin (Life-Technologies) to detach cells from the flask. Cells were counted in a CASY Cell Counter using a 150 um capillary and their density set at 5 * 10^4 cells per mL in supplemented assay DMEM. Infected H9c2 were dispensed into 384-well poly-lysine coated assay plates at 50uL per well using a Multidrop Combi dispenser. After seeding them, the plates were incubated at 37C, 5% CO2 for 72h. Cultures were then fixed and stained by addition of 50 uL of a solution containing 8% formaldehyde and 4 uM DRAQ5 DNA dye (BioStatus, UK) per well. […] Five images were collected per well for reliable statistical analysis. Automated image analysis was performed with a script developed on Acapella High Content Imaging and Analysis Software (PerkinElmer). Output: percentage of infected cells per well as a second infection marker. The note with it: H9c2, 4 h. The format is functional, organism-based, Rattus norvegicus.

Data set [3] has as its system Trypanosoma cruzi. The data set can be described thus: GSK_TCAKS: pIC50 Trypanosoma cruzi Imaging: Amastigotes/Cell. […] Cells were then washed once with PBS before infection. T. cruzi trypomastigotes, collected at days 5 to 8 after infection from LLC-MK2 parasite infected cultures, were allowed to swim out for 4h at 37C from a centrifuged pellet (2,500 rpm/10 min/room temperature). Trypomastigotes were then collected and counted in a CASY Cell Counter. Trypomastigotes, in supplemented DMEM, were added to H9c2 cultures in a multiplicity of infection of 1 and incubated for 18 h. Cells were washed once with PBS before incubation of the infected H9c2 monolayer with trypsin (Life-Technologies) to detach cells from the flask. Cells were counted in a CASY Cell Counter using a 150 um capillary and their density set at 5 * 10^4 cells per mL in supplemented assay DMEM. Infected H9c2 were dispensed into 384-well poly-lysine coated assay plates at 50uL per well using a Multidrop Combi dispenser. After seeding them, the plates were incubated at 37C, 5% CO2 for 72h. Cultures were then fixed and stained by addition of 50 uL of a solution containing 8% formaldehyde and 4 uM DRAQ5 DNA dye (BioStatus, UK) per well. […] Five images were collected per well for reliable statistical analysis. Automated image analysis was performed with a script developed on Acapella High Content Imaging and Analysis Software (PerkinElmer). Output: number of amastigotes per cell as infection level measurement. The format is functional, organism-based, Rattus norvegicus. As to conditions: H9c2, 4 h.

For data set [4], the system named is Trypanosoma cruzi. The description is as §1, with “H2C9” for “Trypanosoma cruzi”, “H9c2 Host Cardiomyocytes.” for “Infected Cells.”, “Number” for “percentage”, “H9c2 Host Cardiomyocytes nuclei to determine drug-related cytotoxicity.” for “infected cells per well as a second infection marker.”. The format is functional, organism-based, Rattus norvegicus. The note with it: H9c2, 4 h.

Data set [5] concerns Leishmania donovani. The data set can be described thus: GSK_TCAKS: pIC50 Leishmania donovani viability assay using fluorescence intensity. Assay plates (1536-well) were prepared by adding 30nL per well of compound. For single shot assay, the final compound concentration was 5uM. […] Briefly, eGFP LdBOB axenic amastigotes were harvested, fixed and counted in a CASY cell counter (Roche-Applied Science). A final concentration of 1.5 * 10^5 cells per well were prepared in amastigote media containing 500 U/mL penicillin/streptomycin (Invitrogen) and 6uL was dispensed to each experimental well using a Multidrop Combi dispenser (Thermo Scientific). 6uL of assay media was dispensed to control columns used as reference for 100% compound response. Following incubation for 72 h at 37C, 5% CO2, 2 uL of resazurin was added to each well at a final concentration of 0.5 mM in phosphate buffered saline (PBS) with IGEPAL (Sigma-Aldrich), 0.05% (v/v). The format is functional, organism-based. (Resazurin is reduced to fluorescent resorufin, in cell work by metabolically active cells.)

The test system of data set [6] is Leishmania donovani. The data set can be described thus: GSK_TCAKS: pIC50 Leishmania donovani Imaging: Infected Macrophages. Assay plates (384-well) were prepared by adding 250nL of compound to each well. For single shot assay, the final compound concentration was 5 uM. […] Automated image analysis was performed with a script developed on Acapella High Content Imaging and Analysis Software (PerkinElmer). Output: Percent of infected macrophage cells were reported for each well. In kind it is functional, organism-based, Homo sapiens. The note with it: THP-1.

The subject of data set [7] is Leishmania donovani. Kind of data set: GSK_TCAKS: pIC50 Leishmania donovani Imaging: Amastigotes/Macrophages. Assay plates (384-well) were prepared by adding 250nL of compound to each well. For single shot assay, the final compound concentration was 5 uM. […] Automated image analysis was performed with a script developed on Acapella High Content Imaging and Analysis Software (PerkinElmer). Output: Average number of amastigotes per macrophage cell were reported for each well. In kind it is functional, organism-based, Homo sapiens. As to conditions: THP-1.

Data set [8] deals with Leishmania donovani. The data set can be described thus: GSK_TCAKS: pIC50 Leishmania donovani Imaging: THP-1 Host Macrophages. Assay plates (384-well) were prepared by adding 250nL of compound to each well. For single shot assay, the final compound concentration was 5 uM. […] Automated image analysis was performed with a script developed on Acapella High Content Imaging and Analysis Software (PerkinElmer). Output: THP-1 cell count were reported for each well. In kind it is functional, organism-based, Homo sapiens.

The subject of data set [9] is Trypanosoma brucei brucei. The data set can be described thus: GSK_TCAKS: pIC50 Trypanosoma brucei viability assay using fluorescence intensity. Assay plates (1536-well) were prepared by dispensing 25nL of compound solution per well using an Echo acoustic dispenser (Labcyte). In kind it is functional, organism-based. As to conditions: Lister 427, 2 h.
Data set [10] has as its system Trypanosoma brucei brucei. Kind of data set: GSK_TCAKS: pIC50 Trypanosoma brucei viability assay using luminiscence. Assay plates (1536-well) were prepared. T. brucei cultures were harvested and counted in a CASY cell counter. A parasite suspension was prepared at a final concentration of 5 * 10^4 cells/mL in complete HMI9 medium and 6uL was dispensed to all wells containing compounds using a Multidrop Combi dispenser. 6uL of HMI9 media with 0.4% DMSO were dispensed to control columns. Plates were incubated for 24 h at 37C, 5% CO2 then tempered for 10 min at room temperature. ATP content was quantified by adding 4 uL of CellTiter-Glo Reagent (Promega) according to the manufacturer's instructions. Luminescence was measured using a ViewLux. The note with it: Lister 427, CASY. The format is functional, organism-based. (ATP-based viability assays read luminescence as a measure of living cells.)

Data set [11] is described as follows: GSK_TCAKS: pIC50 HepG2 human cell line viability assay using luminiscence. […] Seeding density was checked to ensure that new mono-layers were not more than 50% confluent at the time of harvesting. Cell suspension was added to 500 mL of the same medium at a final density of 1.2 * 10^5 cells/mL. This cell suspension was dispensed (25 uL, 3000 cells per well) into 384-well clear-bottom plates using a Multidrop Combi dispenser. Prior to addition of the cell suspension, the screening compounds (250 nL) were pre-dispensed into the plates with an Echo liquid handler. Plates were incubated for 48 h at 37C, 5% CO2. After incubation, plates equilibrated at room temperature for 30 min before proceeding to develop the luminescent signal. The signal developer, CellTiter-Glo Reagent, was allowed to equilibrate at room temperature for 30 min and added to the plates (25uL per well) using a Multidrop Combi dispenser. Plates were left for 10 min at room temperature for stabilization and then read using a ViewLux. In kind it is toxicity, cell-based.

Data set [12] has as its target Sterol 14-alpha demethylase (Trypanosoma cruzi (strain CL Brener), UniProt Q7Z1V1). The data set can be described thus: GSK_TCAKS: pIC50 CYP51 from Trypanosoma cruzi. In kind it is functional.

Sequence of Sterol 14-alpha demethylase (Q7Z1V1 whole entry): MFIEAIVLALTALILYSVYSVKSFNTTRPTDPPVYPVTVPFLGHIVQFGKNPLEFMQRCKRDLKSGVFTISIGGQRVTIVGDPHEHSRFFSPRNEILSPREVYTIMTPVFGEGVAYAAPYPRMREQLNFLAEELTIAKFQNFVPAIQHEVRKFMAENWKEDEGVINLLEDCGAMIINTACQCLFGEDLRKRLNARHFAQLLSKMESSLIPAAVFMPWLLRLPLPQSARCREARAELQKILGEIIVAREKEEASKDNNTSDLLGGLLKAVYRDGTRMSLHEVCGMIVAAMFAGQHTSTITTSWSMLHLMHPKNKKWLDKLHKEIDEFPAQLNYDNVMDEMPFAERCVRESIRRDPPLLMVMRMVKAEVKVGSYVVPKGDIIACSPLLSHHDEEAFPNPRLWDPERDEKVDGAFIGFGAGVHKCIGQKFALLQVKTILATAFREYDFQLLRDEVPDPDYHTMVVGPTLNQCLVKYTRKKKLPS

As a reminder, the IC50 is the midpoint of a concentration-inhibition curve. Regarding `COc1cc(OC)cc(C(=O)N[C@@H](CC(C)C)C(=O)NC2(C#N)CC2)c1`, the IC50 in data set [1], in [2], in [3], in data set [4], in data set [5] and in [6] was over 50.1 µM throughout. Further, the IC50 in data set [7] was over 50.1 µM; in [8] it was over 50.1 µM; in data set [9], 0.501 µM; in data set [10], 0.0631 µM; in data set [12], over 100 µM. Also, the IC50 at 48 h in data set [11] is over 100 µM.
For `O=C(Nc1nc(-c2ccccn2)cs1)c1ccccc1-n1cnnn1`, the IC50 was 3.55 µM in data set [1]; 3.16 µM in [2]; 2 µM in [3]; 5.01 µM in data set [4]; 3.16 µM in data set [5]; 6.31 µM in data set [6]. For the same molecule, the IC50 is 3.98 µM in [7]; 5.01 µM in [8]; 0.631 µM in data set [9]; 0.631 µM in [10]; over 100 µM in data set [12]. In data set [11], the IC50 at 48 h is 1.58 µM.
For the molecule `Cc1noc(C)c1COc1cccc(C(=O)N=c2[nH]cccc2C)c1`, the IC50 in data set [1] is over 50.1 µM; in [2], 50.1 µM; in data set [3] it was 39.8 µM; in data set [4], 2.51 µM; in data set [5] it was over 50.1 µM; in data set [6], 20 µM. For the same molecule, the IC50 in data set [7] is 10 µM; in data set [8], 6.31 µM; in data set [9], 0.398 µM; in [10], 0.794 µM; in data set [12], 50.1 µM. The same molecule gave an IC50 at 48 h in data set [11] of over 100 µM.
Consider `CCOc1ccc(Nc2ccc(S(=O)(=O)N3CCN(C)CC3)cc2[N+](=O)[O-])cc1OCC`, for which the IC50 in data set [1] was 7.94 µM; in [2] it was over 50.1 µM; in data set [3], 3.16 µM; in data set [4], over 50.1 µM; in [5], 0.794 µM; in data set [6], 7.94 µM. Besides, the IC50 was 5.01 µM in data set [7]; 12.6 µM in data set [8]; 6.31 µM in [9]; 31.6 µM in data set [10]; 31.6 µM in [12]. In [11], this molecule had an IC50 at 48 h of over 100 µM.
`O=C(CC1(O)C(=O)N(Cc2ccccc2)c2ccc(Br)cc21)c1cccnc1` (centres undefined): the half-maximal inhibitory concentration (IC50) is 5.01 µM in data set [1]; 25.1 µM in data set [2]; 20 µM in data set [3]; 3.16 µM in data set [4]; over 50.1 µM in data set [5]; over 50.1 µM in data set [6]. Moreover, the IC50 was 31.6 µM in data set [7]; 39.8 µM in data set [8]; 0.631 µM in data set [9]; 0.794 µM in data set [10]; 3.98 µM in [12]. Moreover, it took 63.1 µM to reach half-maximal inhibition in [11] (IC50 at 48 h).
For `O=c1cc(NCCCNCc2c[nH]c3ccc(Br)cc23)[nH]c2ccccc12`, the IC50 in data set [1] is over 50.1 µM; in data set [2] it was over 50.1 µM; in [3], 31.6 µM; in data set [4] it was over 50.1 µM; in data set [5], over 50.1 µM; in data set [6], over 50.1 µM. Also, the IC50 in [7] is over 50.1 µM; in data set [8] it was over 50.1 µM; in data set [9], 1 µM; in data set [10] it was 0.794 µM; in data set [12], over 100 µM. This molecule also had an IC50 at 48 h in [11] of over 100 µM.
`CN(C)S(=O)(=O)c1ccc(Cl)c(C(=O)Nc2nc(-c3ccccn3)cs2)c1`: the IC50 in data set [1] is 1.58 µM; in data set [2], 2 µM; in [3], 1.26 µM; in data set [4] it was 6.31 µM; in data set [5] it was 2 µM; in data set [6] it was 10 µM. Moreover, the IC50 in [7] was 5.01 µM; in [8], 6.31 µM; in data set [9], 0.501 µM; in [10], 0.398 µM; in [12], 31.6 µM. The molecule further showed an IC50 at 48 h in data set [11] of over 100 µM.
